The subject of data set [1] is HIV virions. The experiment in a line: Infectivity of ODN-pre-incubated HIV virions in C81-66/45 cells. It counts as cell-based. As for the experimental part:
As a next step we investigated the antiviral effect of ODNs by testing the infectivity of treated virions in cell culture studies. We used ODN A, ODN T, as PPT and ODN CO. 2×10^5 C81-66/45 cells were infected with virions pre-incubated with different ODNs at 0.01 MOI for 1, 2 or 4 hours prior to infection. RNA was extracted from infected cells and HIV replication was analysed by real-time PCR 3 days post-infection.
To test the specificity of suppression of viral replication, the effect of ODN A on the infectivity of virions was compared with control ODNs. Virions were pre-treated with the ODNs and HIV replication in infected cells was analysed by real-time PCR, 5 days (FIG. 6A) or 20 days post-infection (FIG. 6B) and by measuring p24 production in the supernatant of the infected cells (FIG. 6C).
(A) HIV virions were incubated with 0.5 μM of ODNs for 1, 2 or 4 hours. C81-66/45 cells were infected with pre-incubated virions, at 0.01 MOI. RNA was extracted from infected cells and HIV replication was analysed by real-time PCR, 3 days post-infection (p.i.).
(B) The same experiment as in (A) was performed with ODN T, ODN CO, asPPT and ODN A pre-treated virions.
(D) C81-66145 cells were infected with virions pre-incubated with 0.5 or 5 μM of ODNs for 4 h, at an MOI of 1. RNA was extracted from infected cells and HIV replication was analysed by real-time PCR, 3 days post-infection.
(E) C81-66/45 cells were infected with virions pre-incubated with ODN A and ODN Sc for 4 h, at an MOI of 0.01. RNA was extracted from infected cells and HIV replication was analysed by real-time PCR, 1 h and 24 h post-infection. (F) The same experiment as in (E) was performed except for using ODN T, ODN B and ODN A, 1 hour post-infection.
C81-66/45 cells were infected with virions pre-incubated with ODN A, ODN T, ODN CO or as PPT for 4 h, at MOI of 0.01. RNA was extracted from infected cells and HIV replication was analysed by real-time PCR, 5 days p.i. (A), and 20 days p.i. (B); by measuring p24 production in the medium of the infected cells (C) or by RT-PCR, 11 days p.i. (D).

For data set [2], the system named is HIV virions. The experiment in a line: ODN-mediated cleavage of viral RNA in intact HIV virions (real-time PCR, RT-PCR, agarose gel). It counts as biochemical. The settings on record: 0.5 μM ODN, 6 hours; for amount of undigested viral RNA (real-time PCR, primers covering PPT region): intact HIV virions, RPMI medium.
The target of data set [3] is T1, RT/RNaseH (Human immunodeficiency virus type 1 group M subtype B, UniProt P04585). Kind of data set: RNase H cleavage assay with synthetic 5'-end-labelled RNA and RT/RNaseH. It counts as biochemical, HIV-1. The settings on record: for RT/RNaseH cleavage of RNA2 (contains extended PPT): 10 nM 5'-labelled RNA2. The arrangement: the HIV RT/RNase H is a heterodimer of p66 and p51 with and without RNase H. The text has this: We used synthetic 5′-end-labelled RNA2, which contains the extended PPT and sequences of the viral genome close to the PPT. […] For the present study we used low concentrations of the ODNs.
To test whether an ODN-mediated activity would preferentially occur at the PPT, we analysed ODNs targeted to the extended PPT (ODN A) or to a region outside of the PPT (ODN CO and an external antisense oligodeoxynucleotide asEXT) in vitro. We used RNA2, which contains the PPT and the binding sites for ODN A, asEXT and ODN CO. […] Indeed, in the reaction mixture containing both ODN A and asEXT primers, extension products, predominantly synthesized by the RT/RNaseH, started with ODN A and not asEXT (FIG. 2B). […] Thus, the ability of the ODN A to mediate RT/RNaseH-dependent cleavage of the viral RNA is PPT-dependent.
(A) Cleavage assay. 10 nM of in vitro transcribed 5′-labeled RNA was hybridized with 10, 100 and 1000 nM of ODN A and incubated in the presence of RT/RNaseH. The cleavage products were analyzed by denaturing PAGE as described in Materials and methods. (B). Primer extension assay. Synthetic RNA2 was hybridized with ODN A, antisense primer (asEXT) or both primers combined, and the primer extension was performed as described in Materials and Methods. Elongation products were analysed by 8 M urea/10% PAGE. (C) Cleavage assay. RNA/ODN hybrids, obtained using 10 nM of RNA2 and 10 nM of ODN A, asPPT or ODN CO were incubated with RT/RNaseH and cleavage products were analyzed by denaturing PAGE as described in Materials and methods. Cleavage or extension products are presented schematically to the right of each blot. Cleavage sites are indicated by arrows and labelled cleavage products are shown by black lines. Dots on extension products indicate the incorporated labelled dATPs.

For data set [4], the target named is T1, RT/RNaseH. The following applies: high concentrations; previously shown (ref. 12); cited from earlier work.
Data set [5] deals with SFFV. Kind of data set: Survival of SFFV-infected DBA/2 mice treated with ODN M at times 0 and 1 hour. It counts as in vivo. The following applies: ODN M 1 mg at 0 and 1 hour, i.p.
Experimental: We also monitored survival of SFFV-infected mice treated with and without ODN M at times 0 and 1 hour, in this case DBA/2 mice and by i.p. route (FIG. 11b).
Five mice each received 300 μl SFFV (1:100) i.p. supplemented with or without ODN M and 1 h later a second dose of ODN M (1 mg each). Survival was monitored until day 68. The spleen weights at death are indicated as numbers on the graph.
The test system of data set [6] is SFFV. The experiment in a line: NIH 3T3 cells infected with SFFV for 2 h and then treated. It counts as cell-based. The following applies: treatment 2 h after infection, three concentrations, no carrier, three days post-infection. The protocol:
In the next experiment NIH 3T3 cells were infected with SFFV for 2 h and then treated with three different concentrations each of ODN M, asPPT, and three different siRNAs.
c. NIH-3T3 cells were infected with SFFV for 2 hours and then treated with three decreasing concentrations of ODN M, asPPT and three different PPT-specific siRNAs. RNA was isolated from supernatants three days post-infection and analyzed by real time RT-PCR.

Setting [7] is: virions pre-incubated 4 hours with 0.5 μM ODN, 0.01 MOI, 3 days post-infection.

On to “CCCTTCCAGTCCCCCCTTTTCTTTT (chemistry not given here) [asPPT, single-stranded antisense PPT of HIV, lacks the passenger strand and the linker]”, for which, in the data set on HIV virions [1] (setting [7]), the “HIV replication in infected cells (real-time PCR)” value is “low but detectable levels”. In addition, the “amount of undigested viral RNA (real-time PCR, primers covering PPT region)” value in the data set on HIV virions [2] is on record as “less efficient cleavage of the viral RNA”.

Regarding “TTTTCTTTTGGGGGGTTTGGTTGGGTTTTCCCTTCCAGTCCCCCCTTTTCTTTT (phosphorothioate linkages, further chemistry not given here) [ODN A, 25 mer antisense and 25 mer passenger strand connected by T4, phosphorothioated at each end and in linker, targeted to extended PPT of HIV-1]”, the entries for the “RT/RNaseH cleavage of RNA2 (contains extended PPT)” value in the data set with RT/RNaseH [3] (10 nM ODN) and in the data set with RT/RNaseH [3] (1 μM ODN) were “cleaved” and “not”, respectively. Further, the “cleavage of RNA2 compared to control ODN CO” value with RT/RNaseH [3] (10 nM RNA2, 10 nM ODN, FIG. 2C) is on record as “more efficient cleavage”. Also, the “cleavage of RNA2 compared to single-stranded asPPT” value with RT/RNaseH [3] (10 nM RNA2, 10 nM ODN, FIG. 2C) was “slightly stronger”. In the data set with RT/RNaseH [3] (RNA3 without PPT), the “ODN-mediated cleavage of RNA3 (no PPT sequence)” value is on record as “not affected”. Also, the “HIV replication in infected cells (real-time PCR)” value in the data set on HIV virions [1] (ODN-pre-treated virions, MOI of 1, 3 days post-infection) is recorded as “only partial suppression of HIV replication”; in the data set with HIV virions [1] (setting [7]) it was “complete suppression of viral replication”. The “binding/uptake of pre-treated virions by host cells” value with HIV virions [1] (pre-incubation 4 hours, HIV RNA in infected cells 1 hour post-infection) was “did not significantly interfere with binding”. Besides, the “time without sign of virus replication after infection” value in the data set on HIV virions [1] (virions pre-incubated 4 h, MOI of 0.01, real-time PCR, p24, RT-PCR, syncytia) was “at least 20 days”. Besides, the “viral RNA in infected cells” value in the data set with HIV virions [1] (virions pre-treated 4 h, 24 hours after infection) was “completely degraded”. Further, the “virion uptake by cells, less efficient compared to ODN Sc-treated virions” value in the data set with HIV virions [1] (virions pre-treated 4 hours, HIV RNA in infected cells 1 hour post-infection) is 14%. Further, the “concentration at which ODN inhibits the RT/RNaseH activity in vitro” value with RT/RNaseH [4] was at least 1 µM. Besides, the “cDNA production in virions (PCR with ODN A- and viral cDNA-specific primers)” value in the data set on HIV virions [2] (virions containing monodeoxynucleotides) was “led to cDNA production starting with ODN A”. Further, the “amount of undigested viral RNA (real-time PCR, primers covering PPT region)” value in the data set with HIV virions [2] is given as “significant decrease in the amount of amplification product”. For the same sequence, the “total viral RNA by agarose gel electrophoresis” value with HIV virions [2] (intact virions, compared to control ODNs) is recorded as “significant reduction of the viral RNA”.

“TCTTTTTGGGGGGTTTGTTTGTTTTTTCTTTCATTCCCCCCTTTTTCT (chemistry not given here) [ODN M, 22-mer antisense and 22-mer second strand connected by T4, targeted to extended PPT of SFFV]”: in the data set with SFFV [5], the survival time result is “almost doubled”. Besides, the “number of treated mice with prolonged survival” value in the data set with SFFV [5] (DBA/2 mice) was “Two out of five”. In addition, in the data set on SFFV [5] (untreated mice died after 20 to 30 days), the “survival of the surviving mice” value is on record as “more than 60 days”. Further, the “antiviral effect, SFFV RNA in supernatants” value with SFFV [6] is recorded as “slightly superior to the asPPT but much stronger compared to siRNA”.

The values are drawn from patent publication US20160281089A1, “PREVENTION OF VIRAL INFECTIVITY” (priority 2005, published 2016).
